Data reported in ChEMBL document CHEMBL1122817, “Synthesis and biological activity of substituted [[3(S)-(acylamino)-2-oxo-1-azetidinyl]oxy]acetic acids. A new class of heteroatom-activated beta-lactam antibiotics” (1985).

Assays:
[1] = tested on: Acinetobacter calcoaceticus; assay: Minimum inhibitory concentration against Acinetobacter calcoaceticus AC12; type: functional
[2] = tested on: Geobacillus stearothermophilus; assay: Inhibitory activity against Bacillus Stearothermophilus C451 at 10 mg/mL concentration using Agar disk plate assay; type: functional
Bacillus subtilis [3] = assay: Inhibitory activity against Bacillus Subtilis X12 at 10 mg/mL concentration using Agar disk plate assay; type: functional
Bacillus subtilis [4] = assay: Inhibitory activity against Bacillus Subtilis X12M at 10 mg/mL concentration using Agar disk plate assay; type: functional
Citrobacter freundii = assay: Minimum inhibitory concentration against Citrobacter freundii CF17; type: functional
Escherichia coli [5] = assay: Minimum inhibitory concentration against Escherichia coli N10; type: functional
Escherichia coli [6] = assay: Minimum inhibitory concentration against Escherichia coli TEM; type: functional
Klebsiella aerogenes [7] = assay: Minimum inhibitory concentration against Enterobacter aerogenes C32; type: functional
Escherichia coli [8] = assay: Inhibitory activity against Escherichia coli X580 at 10 mg/mL concentration using Agar disk plate assay; type: functional
Escherichia coli [9] = assay: Inhibitory activity against Escherichia coli X161 at 10 mg/mL concentration using Agar disk plate assay; type: functional
Escherichia coli [10] = assay: Inhibitory activity against Escherichia coli X161M at 10 mg/mL concentration using Agar disk plate assay; type: functional
Enterobacter cloacae [11] = assay: Minimum inhibitory concentration against Enterobacter cloacae 265A; type: functional
Enterobacter cloacae [12] = assay: Minimum inhibitory concentration against Enterobacter cloacae EB5; type: functional
Haemophilus influenzae [13] = assay: Minimum inhibitory concentration against Haemophilus influenza 76; type: functional
Haemophilus influenzae [14] = assay: Minimum inhibitory concentration against Haemophilus influenza C.L; type: functional
Klebsiella pneumoniae [15] = assay: Minimum inhibitory concentration against Klebsiella pneumoniae KAE; type: functional
Klebsiella pneumoniae [16] = assay: Minimum inhibitory concentration against Klebsiella pneumoniae X26; type: functional
Klebsiella pneumoniae [17] = assay: Minimum inhibitory concentration against Klebsiella pneumoniae X68; type: functional
Morganella morganii = assay: Minimum inhibitory concentration against Proteus morganii PR15; type: functional
Pseudomonas aeruginosa [18] = assay: Minimum inhibitory concentration against Pseudomonas aeruginosa (4 strains); type: functional
Proteus vulgaris = assay: Inhibitory activity against Proteus vulgaris X45 at 10 mg/mL concentration using Agar disk plate assay; type: functional
Pseudomonas aeruginosa [19] = assay: Inhibitory activity against Pseudomonas aeruginosa X48 at 10 mg/mL concentration using Agar disk plate assay; type: functional
Ralstonia solanacearum = assay: Inhibitory activity against Pseudomonas solanacearum X185 at 10 mg/mL concentration using Agar disk plate assay; type: functional
Proteus inconstans = assay: Minimum inhibitory concentration against Proteus inconstans PR33; type: functional; settings: Providencia alcalifaciens
Providencia rettgeri = assay: Minimum inhibitory concentration against Proteus rettgeri C24; type: functional
Salmonella typhi [20] = assay: Minimum inhibitory concentration against Salmonella typhi 1335; type: functional, Salmonella enterica subsp. enterica serovar Typhi; settings: Salmonella enterica
Salmonella typhi [21] = assay: Minimum inhibitory concentration against Salmonella typhi X514; type: functional, Salmonella enterica subsp. enterica serovar Typhi; settings: Salmonella enterica
Micrococcus luteus = assay: Inhibitory activity against Sarcina lutea X186 at 10 mg/mL concentration using Agar disk plate assay; type: functional
[22] = tested on: Salmonella enterica subsp. enterica serovar Gallinarum; assay: Inhibitory activity against Salmonella gallinarum X142 at 10 mg/mL concentration using Agar disk plate assay; type: functional
Serratia marcescens [23] = assay: Minimum inhibitory concentration against Serratia marcescens SE3; type: functional
Staphylococcus aureus [24] = assay: Inhibitory activity against Staphylococcus aureus X1 at 10 mg/mL concentration using Agar disk plate assay; type: functional
Serratia marcescens [25] = assay: Inhibitory activity against Serratia marcescens X99 at 10 mg/mL concentration using Agar disk plate assay; type: functional
[26] = tested on: Staphylococcus epidermidis; assay: Minimum inhibitory concentration against Staphylococcus epidermidis (2 strains); type: functional
Streptococcus pyogenes = assay: Minimum inhibitory concentration against Streptococcus pyogenes C203; type: functional
Streptococcus pneumoniae = assay: Minimum inhibitory concentration against Streptococcus pneumoniae Park I; type: functional
Streptococcus = assay: Minimum inhibitory concentration against Streptococcus sp. Group D (2 strains); type: functional
Staphylococcus aureus [27] = assay: Minimum inhibitory concentration against Staphylococcus aureus (4 strains); type: functional
Klebsiella aerogenes [28] = assay: Minimum inhibitory concentration against Enterobacter aerogenes EB 17; type: functional
Escherichia coli [29] = assay: Minimum inhibitory concentration against Escherichia coli EC14; type: functional
Serratia marcescens [30] = assay: Minimum inhibitory concentration against Serratia marcescens X99; type: functional

CO/N=C(\C(=O)N[C@@H]1C(=O)N(OCC(=O)[O-])[C@H]1C)c1csc(N)n1.[K+]
MIC [1]: > 64 µg/mL
Zone of inhibition [2]: 24 mm
Zone of inhibition (Bacillus subtilis [3]): 13 mm
Zone of inhibition (Bacillus subtilis [4]): 19 mm
MIC (Citrobacter freundii): 2 µg/mL
MIC (Escherichia coli [5]): 0.25 µg/mL
MIC (Escherichia coli [6]): 0.5 µg/mL
MIC (Klebsiella aerogenes [7]): 0.25 µg/mL
Zone of inhibition (Escherichia coli [8]): 56 mm
Zone of inhibition (Escherichia coli [9]): 35 mm
Zone of inhibition (Escherichia coli [10]): 44 mm
MIC (Enterobacter cloacae [11]): > 64 µg/mL
MIC (Enterobacter cloacae [12]): 1 µg/mL
MIC (Haemophilus influenzae [13]): 1 µg/mL
MIC (Haemophilus influenzae [14]): 1 µg/mL
MIC (Klebsiella pneumoniae [15]): 32 µg/mL
MIC (Klebsiella pneumoniae [16]): 0.25 µg/mL
MIC (Klebsiella pneumoniae [17]): 0.25 µg/mL
MIC (Morganella morganii): 2 µg/mL
MIC (Pseudomonas aeruginosa [18]): > 64 µg/mL
Zone of inhibition (Proteus vulgaris): 36 mm
Zone of inhibition (Pseudomonas aeruginosa [19]): 15 mm
Zone of inhibition (Ralstonia solanacearum): 20 mm
MIC (Proteus inconstans): 0.125 µg/mL
MIC (Providencia rettgeri): 0.125 µg/mL
MIC (Salmonella typhi [20]): 0.25 µg/mL
MIC (Salmonella typhi [21]): 0.125 µg/mL
Zone of inhibition (Micrococcus luteus): 22 mm
Zone of inhibition [22]: 30 mm
MIC (Serratia marcescens [23]): 1 µg/mL
Zone of inhibition (Staphylococcus aureus [24]): 19 mm
Zone of inhibition (Serratia marcescens [25]): 33 mm
MIC [26]: > 64 µg/mL
MIC (Streptococcus pyogenes): 16 µg/mL
MIC (Streptococcus pneumoniae): 32 µg/mL
MIC (Streptococcus): > 64 µg/mL
MIC (Staphylococcus aureus [27]): > 64 µg/mL
MIC (Klebsiella aerogenes [28]): 0.25 µg/mL
MIC (Escherichia coli [29]): 0.25 µg/mL
MIC (Serratia marcescens [30]): 0.5 µg/mL

C[C@H]1[C@H](NC(=O)Cc2csc(N)n2)C(=O)N1OCC(=O)[O-].[K+]
Zone of inhibition (Bacillus subtilis [3]): 12 mm
Zone of inhibition (Bacillus subtilis [4]): 21 mm
Zone of inhibition (Escherichia coli [8]): 36 mm
Zone of inhibition (Escherichia coli [9]): 24 mm
Zone of inhibition (Escherichia coli [10]): 25 mm
Zone of inhibition (Proteus vulgaris): 19 mm
Zone of inhibition (Micrococcus luteus): 15 mm
Zone of inhibition [22]: 22 mm
Zone of inhibition (Staphylococcus aureus [24]): 18 mm
Zone of inhibition (Serratia marcescens [25]): 23 mm

O=C(O)CON1C[C@H](NC(=O)Cc2ccccc2)C1=O
Zone of inhibition (Bacillus subtilis [3]): 16 mm
Zone of inhibition (Bacillus subtilis [4]): 20 mm
Zone of inhibition (Escherichia coli [8]): 11 mm
Zone of inhibition (Proteus vulgaris): 10 mm
Zone of inhibition (Micrococcus luteus): 23 mm
Zone of inhibition (Staphylococcus aureus [24]): 23 mm

C[C@H]1[C@H](NC(=O)Cc2ccccc2)C(=O)N1OCC(=O)O
Zone of inhibition (Bacillus subtilis [3]): 11 mm
Zone of inhibition (Bacillus subtilis [4]): 18 mm
Zone of inhibition (Escherichia coli [8]): 26 mm
Zone of inhibition (Proteus vulgaris): 10 mm
Zone of inhibition (Micrococcus luteus): 23 mm
Zone of inhibition (Staphylococcus aureus [24]): 13 mm
